Target: protein kinase C
Assay: inhibition of protein kinase C in vitro (protein kinase-induced incorporation of 32P from [γ-32P]ATP into histone)
Format: biochemical
Conditions: concentration reducing by 50% the protein kinase-induced incorporation of 32P from [γ-32P]ATP into histone
Text: The IC50 figures in the following Table, represent that concentration of test compound which reduces by 50% the protein kinase-induced incorporation of ^32 P from [γ-^32 P]ATP into histone.

Compound | IC50 [nM]
Cn1cc(C2=C(c3cn(CCCN=C=S)c4ccccc34)C(=O)NC2=O)c2ccccc21 [3-[1-(3-isothiocyanatopropyl)-3-indolyl]-4-(1-methyl-3-indolyl)-1H-pyrrole-2,5-dione] | 8
Cn1cc(C2=C(c3cn(CCCNC(N)=N[N+](=O)[O-])c4ccccc34)C(=O)NC2=O)c2ccccc21 [3-(1-methyl-3-indolyl)-4-[1-[3-(2-nitroguanidino)propyl]-3-indolyl]-1H-pyrrole-2,5-dione] | 25
Cc1cccc(C2=C(c3cn(C)c4ccccc34)C(=O)NC2=O)c1 [3-(1-methyl-3-indolyl)-4-(3-methylphenyl)-1H-pyrrole-2,5-dione] | 1000
Cn1cc(C2=C(c3cn(C)c4ccc(N)cc34)C(=O)NC2=O)c2ccccc21 [3-(5-amino-1-methyl-3-indolyl)-4-(1-methyl-3-indolyl)-1H-pyrrole-2,5-dione] | 600

The remaining lines, values ahead:

IC50 [nM] | Compound
10 | Cn1cc(C2=C(c3cn(CCCSC(=N)N)c4ccccc34)C(=O)NC2=O)c2ccccc21 [3-[1-[3-(amidinothio)propyl]-3-indolyl]-4-(1-methyl-3-indolyl)-1H-pyrrole-2,5-dione]
500 | Cn1cc(C2=C(c3cn(CCC(N)=O)c4ccccc34)C(=O)NC2=O)c2ccccc21 [3-[1-(2-carbamoylethyl)-3-indolyl]-4-(1-methyl-3-indolyl)-1H-pyrrole-2,5-dione]
